What was measured:
[1] = tested on: collagen-induced arthritis; conditions: mice; cited from earlier work
[2] = tested on: hematopoietic stem and progenitor cells (HSPC), CFU-GM; test: CFU-GM mobilization into peripheral blood, BALB/c mice
pre-B-ALL cells = conditions: in vitro, cited from earlier work
[3] = tested on: hematopoietic stem and progenitor cells (HSPC), CFU-GM; test: CFU-GM mobilization into peripheral blood, FancC −/− mice; type: in vivo
[4] = tested on: hematopoietic stem and progenitor cells (HSPC), CFU-GM; test: CFU-GM mobilization into peripheral blood, +/+ C57B1 (wild type) mice; type: in vivo; conditions: +/+ C57B1 controls; G-CSF alone regimen

For `c1cc(CN2CCCNCCNCCCNCC2)ccc1CN1CCCNCCNCCCNCC1` [AMD3100, 1,1′-[1,4-phenylene-bis(methylene)]-bis-1,4,8,11-tetraazacyclotetradecane], the “effect in collagen-induced arthritis models” value [1] is given as “protective effects”, the CFU-GM/mL blood mobilized ([2]; blood harvested 60 min after AMD (5 mg/kg SC), alone or on day 5 after G-CSF regimen) is given as 991±121 CFU-GM/mL blood and the “effect on cytotoxic and antiproliferative effects of vincristine and dexamethasone” value (pre-B-ALL cells; pre-B-ALL cells) is given as “enhanced”. The “SDF-1 induced chemotaxis of pre-B-ALL cells into bone marrow stroma layers” value (pre-B-ALL cells) was “blocked”.

For “GROβ: recombinant human GROβ, chemokine, CXCR2 agonist”, the CFU-GM/mL blood mobilized ([2]; blood harvested 15 min after GROβ (2.5 mg/kg SC) or GROβ+AMD, alone or on day 5 after G-CSF regimen) was 2562±396 CFU-GM/mL blood and the “CFU-GM mobilization in FancC −/− mice relative to +/+ controls” value ([3]; FancC −/− vs +/+ C57B1) was “lower in FancC −/− mice”.

B1: G-CSF: recombinant human Granulocyte-Colony Stimulating Factor (protein, UniProt P09919 31-207, looked up)
Granulocyte …: TPLGPASSLPQSFLLKCLEQVRKIQGDGAALQEKLVSECATYKLCHPEELVLLGHSLGIPWAPLSSCPSQALQLAGCLSQLHSGLFLYQGLLQALEGISPELGPTLDTLQLDVADFATTIWQQMEELGMAPALQPTQGAMPAFASAFQRRAGGVLVASHLQSFLEVSYRVLRHLAQP
With B1 the CFU-GM mobilized [4] was 1451±80, the CFU-GM/mL blood mobilized ([2]; G-CSF alone 100 ug/kg/day, bid, SC×4 days) was 4362±996 CFU-GM/mL blood and the CFU-GM mobilized ([3]; FancC −/− mice, G-CSF alone regimen) was 858±21. The “mobilization lower in FancC −/− mice compared to +/+ controls” value ([3]; FancC −/− vs +/+ C57B1) was 45%.

From patent US20100178271A1, “Combination Therapy” (GENZYME CORPORATION, priority 2006, published 2010)
